# Values quoted from earlier work as cited in patent US20110190221A1, “MODULATION AND REPLETION/ENHANCEMENT OF THE COMPLEMENT SYSTEM FOR TREATMENT OF TRAUMA” (APELLIS AG, priority 2008, published 2011).
# System: complement activation
# Conditions: relative to compstatin amidated at the C-terminus; based on published data (WO2004/026328, Mallik 2005, Katragadda 2006)
sequence,measurement,value
ICVVQDWGHHRCT [Ac-compstatin],Activity over compstatin,3 × more
